In ChEMBL document CHEMBL4725375, “Total synthesis and a systematic structure-activity relationship study of WAP-8294A2” (2020) one finds MIC data, which are given here for 7 molecules.

Converted amounts (≈) assume the structure as drawn. Some results are limits rather than exact numbers.

As usually defined, the MIC is the lowest concentration that inhibits growth of the organism.

Assay [1] has as its system Staphylococcus aureus. As to the kind of experiment: Antibacterial activity against Staphylococcus aureus ATCC 29213 by CLSI M07-A8 protocol based microdilution method. It is filed as functional. Background: Dilution methods test growth across graded concentrations, often in twofold steps.
Assay [2] relates to Staphylococcus aureus. As to the kind of experiment: Antibacterial activity against methicillin-resistant Staphylococcus aureus SA86 by CLSI M07-A8 protocol based microdilution method. In kind it is functional.

In the case of `CC(C)CCC[C@@H]1CC(=O)N[C@@H](CO)C(=O)N[C@H](CC(N)=O)C(=O)N[C@@H](CO)C(=O)NCC(=O)N(C)[C@H](Cc2ccccc2)C(=O)N[C@@H](CC(C)C)C(=O)N[C@H](Cc2c[nH]cn2)C(=O)N[C@@H](CCC(=O)O)C(=O)N[C@H](CC(N)=O)C(=O)N[C@H](Cc2c[nH]c3ccccc23)C(=O)N[C@H](CCCN)C(=O)N(C)[C@@H](C(C)C)C(=O)O1`, the minimum inhibitory concentration (MIC) in the assay with Staphylococcus aureus [1] and in the assay with Staphylococcus aureus [2] was 2 µg/mL (≈ 1.27 µM) each time.

For the molecule `CC(C)CCC[C@@H]1CC(=O)N[C@@H](CO)C(=O)N[C@H](CC(N)=O)C(=O)N[C@@H](CO)C(=O)NCC(=O)N(C)[C@H](Cc2ccccc2)C(=O)N[C@@H](CC(C)C)C(=O)N[C@H](CCCN)C(=O)N[C@@H](CCC(=O)O)C(=O)N[C@H](CC(N)=O)C(=O)N[C@H](Cc2c[nH]c3ccccc23)C(=O)N[C@H](Cc2c[nH]cn2)C(=O)N(C)[C@@H](C(C)C)C(=O)O1`, the MIC with Staphylococcus aureus [1] and in the assay on Staphylococcus aureus [2] was 2 µg/mL (≈ 1.27 µM) throughout.

`CC(C)CCC[C@@H]1CC(=O)N[C@@H](CO)C(=O)N[C@H](CC(N)=O)C(=O)N[C@@H](CO)C(=O)NCC(=O)N(C)[C@H](Cc2ccccc2)C(=O)N[C@@H](CC(C)C)C(=O)N[C@H](CCCN)C(=O)N[C@@H](CCC(=O)O)C(=O)N[C@H](CC(N)=O)C(=O)N[C@H](Cc2c[nH]c3ccccc23)C(=O)N[C@H](CCCCN)C(=O)N(C)[C@@H](C(C)C)C(=O)O1`: the figures for the minimal inhibitory concentration (MIC) in the assay on Staphylococcus aureus [1] and in the assay with Staphylococcus aureus [2] were 1 µg/mL (≈ 0.641 µM) and 2 µg/mL (≈ 1.28 µM), respectively.

Take `CC(C)CCC[C@@H]1CC(=O)N[C@@H](CO)C(=O)N[C@H](CC(N)=O)C(=O)N[C@@H](CO)C(=O)NCC(=O)N(C)[C@H](Cc2ccccc2)C(=O)N[C@@H](CC(C)C)C(=O)N[C@H](CCCN)C(=O)N[C@@H](CCC(=O)O)C(=O)N[C@H](CC(N)=O)C(=O)N[C@H](Cc2ccc(O)cc2)C(=O)N[C@H](CCCN)C(=O)N(C)[C@@H](C(C)C)C(=O)O1`: the MIC with Staphylococcus aureus [1] and against Staphylococcus aureus [2] was at least 32 µg/mL each time.

For the molecule `CC(C)CCC[C@@H]1CC(=O)N[C@@H](CO)C(=O)N[C@H](CC(N)=O)C(=O)N[C@@H](CO)C(=O)NCC(=O)N(C)[C@H](Cc2ccccc2)C(=O)N[C@@H](CC(C)C)C(=O)N[C@H](CCCN)C(=O)N[C@@H](CCC(=O)O)C(=O)N[C@H](CC(N)=O)C(=O)N[C@H](Cc2c[nH]c3ccccc23)C(=O)N[C@H](CCCNC(=N)N)C(=O)N(C)[C@@H](C(C)C)C(=O)O1`, the values for the MIC against Staphylococcus aureus [1] and against Staphylococcus aureus [2] were 1 µg/mL (≈ 0.629 µM) and 2 µg/mL (≈ 1.26 µM), respectively.

Consider `CC(C)CCC[C@@H]1CC(=O)N[C@@H](CO)C(=O)N[C@H](CC(N)=O)C(=O)N[C@@H](CO)C(=O)NCC(=O)N(C)[C@H](Cc2ccccc2)C(=O)N[C@@H](CC(C)C)C(=O)N[C@H](CCCNC(=N)N)C(=O)N[C@@H](CCC(=O)O)C(=O)N[C@H](CC(N)=O)C(=O)N[C@H](Cc2c[nH]c3ccccc23)C(=O)N[C@H](CCCN)C(=O)N(C)[C@@H](C(C)C)C(=O)O1`, for which the minimal inhibitory concentration (MIC) came to 1 µg/mL (≈ 0.629 µM) in the assay with Staphylococcus aureus [1] and 2 µg/mL (≈ 1.26 µM) in the assay on Staphylococcus aureus [2].

Regarding `CC(C)CCC[C@@H]1CC(=O)N[C@@H](CO)C(=O)N[C@H](CC(N)=O)C(=O)N[C@@H](CO)C(=O)NCC(=O)N(C)[C@H](Cc2ccccc2)C(=O)N[C@@H](CC(C)C)C(=O)N[C@H](CCCN)C(=O)N[C@@H](CCC(=O)O)C(=O)N[C@H](CC(N)=O)C(=O)N[C@H](Cc2ccccc2)C(=O)N[C@H](CCCN)C(=O)N(C)[C@@H](C(C)C)C(=O)O1`, the MIC in the assay on Staphylococcus aureus [1] and in the assay on Staphylococcus aureus [2] was at least 32 µg/mL in each case.
